From PubChem BioAssay (NCI)
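Cells were grown in 96-well plates and exposed to each compound for 48 hours at five concentrations; endpoints were interpolated linearly between bracketing concentrations, or set to the highest concentration if not reached. TGI denotes the concentration required for complete inhibition of growth.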

What was measured:
Assay in all cases: NCI tumour cell line growth inhibition, 48 h
[1] = tested on: DMS 114 small cell lung
[2] = tested on: HOP-18 NSCLC
[3] = tested on: LXFL 529 NSCLC
[4] = tested on: XF 498 CNS
[5] = tested on: P388 leukemia
[6] = tested on: P388/ADR leukemia
[7] = tested on: SN12K1 renal

SMILES	TGI [1]	TGI [2]	TGI [3]	TGI [4]	TGI [5]	TGI [6]	TGI [7]
CCN(CC)C(=O)c1c(N2CCOCC2)cc(N(CC)CC)oc1=O	> 100 µM	> 100 µM	> 100 µM	> 100 µM			
Cc1cc(=O)c2c(O)c3c(O)cc(O)c4c5c(O)cc(O)c6c(O)c7c(=O)cc(C)c8c1c2c(c34)c(c65)c78		> 100 µM		> 100 µM	72.8 µM	> 100 µM	> 100 µM
O=C(c1ccc(Cl)cc1)N(C(=S)N1CCN(c2ccccn2)CC1)c1ccccc1	> 100 µM	> 100 µM	> 100 µM				
Cc1ccc(NC(=O)c2cccc([N+](=O)[O-])c2O)c(C)c1	> 100 µM	6.44 µM	> 100 µM				
COCC(=O)[C@]1(O)Cc2c(O)c3c(c(O)c2[C@@H](OC2CC(N)C(O)C(C)O2)C1)C(=O)c1c(OC)cccc1C3=O (stereo not given in full)	0.477 µM		2.11 µM				
CC(=O)c1ccc(NC(=O)/C(=N\NC(N)=O)C(C#N)CC(C)(C)C=O)cc1 (stereo not given)	> 100 µM		> 100 µM	> 100 µM			
